Measurements: US20240058251A1, “Composition for Oral Cavity” (SUNSTAR SUISSE SA, priority 2020, published 2024)

System: Streptococcus oralis spp. tigurinus
Assay: S. oralis culture test (Alamar Blue fluorescence; proliferation rate relative to a control containing no sample solution)
Type: cell-based
Experimental: S. oralis was cultured in BHI medium (Brain Heart Infusion broth (manufactured by BD)). After the turbidity of the medium at a wavelength of 660 nm was measured, the culture solution was diluted with BHI medium until the turbidity was 0.1. The diluted medium was used as a bacterial solution. As S. oralis, Streptococcus oralis spp. tigurinus was used.
Sample solutions of Examples and Comparative Examples were prepared by dissolving an amino acid and a sugar in the BHI medium. The concentrations of the amino acid in the sample solutions were set at 0 mg/ml or 15 mg/ml and the concentrations of the sugar were set at 20 mg/ml.
To the wells of a 96-well plate, the bacterial solution (100 μl) and a sample solution (100 μl) were added. The 96-well plate was subjected to culturing performed at 37° C. in anaerobic conditions for 24 hours. After completion of the culture, the supernatant was removed and 110 μl of an Alamar Blue solution (manufactured by Invitrogen) diluted 11-fold with phosphate buffer saline (PBS), was added. Fluorescence intensity was measured at an excitation wavelength of 545 nm and a fluorescence wavelength of 590 nm. A relative value thereof to the fluorescence intensity of a control containing no sample solution was calculated as the proliferation rate of S. oralis. The proliferation rate calculated was evaluated based on the following evaluation criteria. The results are shown in Table 1. • A: 10 or more • B: 5 or more and less than 10 • C: less than 5 […]
The proliferation rate of S. oralis in the case in which galactose was used as the sugar and citrulline was used as the amino acid, was measured. The test method was the same as in Test 1. The concentrations of galactose and citrulline in sample solutions and the measurement results of proliferation rates are shown in Table 3. In Test 3, the concentrations of galactose in sample solutions were set at 0 mg/ml or 2 mg/ml and the concentrations of citrulline were set at 0.5 to 3.0 mg/ml.
The proliferation rate of S. oralis was measured in the case in which 2′-fucosyllactose was used as the sugar and arginine was used as the amino acid. The test method was the same as in Test 1. The concentrations of 2′-fucosyllactose and arginine in sample solutions and the measurement results of proliferation rates are shown in Table 4. […]

## N=C(N)NCCC[C@H](N)C(=O)O [Comparative Example 1, Arginine]
Test 1
  Effect of promoting proliferation of S. oralis (in words): not obtained
Test 1, sample solution in BHI medium: sugar 20 mg/ml, amino acid 0 or 15 mg/ml, 37° C., anaerobic, 24 hours
  Evaluation of proliferation rate: C (less than 5)

## NC(=O)NCCC[C@H](N)C(=O)O [Comparative Example 8, Citrulline]
Test 3, citrulline 0.5 to 3.0 mg/ml, galactose 0 or 2 mg/ml
  Effect of promoting proliferation of S. oralis (in words): the effect of proliferating S. oralis was promoted but the level of the proliferation promotion effect decreased as the concentration of citrulline increased
Test 3, galactose 0 mg/ml, citrulline 0.5 mg/ml
  Proliferation rate: 3.8
Test 3, galactose 0 mg/ml, citrulline 1.0 mg/ml
  Proliferation rate: 2.7
Test 3, galactose 0 mg/ml, citrulline 2.0 mg/ml
  Proliferation rate: 1.8

## C[C@@H]1O[C@@H](O[C@H]2[C@H](O[C@H]3[C@H](O)[C@@H](O)C(O)O[C@@H]3CO)O[C@H](CO)[C@H](O)[C@@H]2O)[C@@H](O)[C@H](O)[C@@H]1O (some centres unmarked) [Comparative Example 9, 2′-Fucosyllactose]
Test 4, 2′-fucosyllactose 1 mg/ml, arginine 0 mg/ml
  Proliferation rate: 1.0
Test 4, 2′-fucosyllactose 2 mg/ml, arginine 0 mg/ml
  Proliferation rate: 1.5
Test 4, 2′-fucosyllactose 3 mg/ml, arginine 0 mg/ml
  Proliferation rate: 0.9
Test 4, 2′-fucosyllactose 4 mg/ml, arginine 0 mg/ml
  Proliferation rate: 0.6
Test 4, 2′-fucosyllactose 1 to 4 mg/ml, arginine 0 or 1.5 mg/ml
  Effect of promoting proliferation of S. oralis (in words): scarcely observed
